In assay [1] the test system is level 9 bleached light brown hair. In words: Differential Scanning Calorimetry of treated hair tress (denaturation temperature). Conditions: 1.5% compound in water, pH4.5; tress soaked at 35° C. for 10 minutes, dried; DSC 90-180° C. at 4° C. per minute. The procedure: A 2.5 g tress of level 9 bleached light brown hair was treated with the aforementioned composition as follows.
a) Soaked the tress in 25 ml solution of the composition at 35° C. for 10 minutes
b) Excess liquor was squeezed off
c) Dry the hair tress using a hair drier.
The hair tress was then evaluated by Differential Scanning Calorimetry (Perkin Elmer DSC6000). Samples (˜5 mg) were cut and placed into a stainless steel pan and 50 microlitres deionised Water was added before sealing. The heating profile was between 90-180° C. at 4° C. per minute.
For orientation: DSC measures the heat that a sample takes up or gives off during a temperature scan.

The test system is the same in assay [2]. In words: Fourier Transform Infrared Spectroscopy (FTIR, UATR) of treated hair tress. Conditions: 1.5% compound in water, pH4.5; tress soaked at 35° C. for 10 minutes, dried; same tresses as DSC. The procedure:
The same hair tresses were also analysed by Fourier Transform Infrared Spectroscopy (FTIR) (Perkin Elmer Frontier) using an UATR attachment. […] For example, in the FTIR spectra, the peaks at 1853 cm^−1 and 1547 cm^−1 are peaks which are neither present in the AADEG itself or the untreated hair, and conversely peaks at 1888 cm^−1 and 1164 cm^−1 are present in the untreated hair, but not in the treated hair.
The same hair tresses were also analysed by Fourier Transform Infrared Spectroscopy (FTIR) (Perkin Elmer Frontier) using an UATR attachment. […] For example, in the FTIR spectra, the peaks at 1713 cm^−1 and 1481 cm^−1 are peaks which are neither present in the AADEG itself or the untreated hair, and conversely peaks at 1351 cm^−1 and 1303 cm^−1 are present in the untreated hair, but not in the treated hair.

As to `CC(=O)CC(=O)OCCOCCOCCOC(=O)CC(C)=O` [Acetoacetylated Triethylene Glycol], in assay [1], the “denaturation temperature (Td) of treated hair compared to hair treated with water alone” value is given as “significant increase”.
Take `CC(=O)CC(=O)OCCOCCOC(=O)CC(C)=O` [Acetoacetylated Diethylene Glycol]: in assay [1], the “denaturation temperature (Td) of treated hair compared to hair treated with water alone” value was “significant increase”. In assay [2], the “2nd derivative FTIR spectra of treated hair compared to untreated samples” value is “a number of new bonds”.
Turning to `CC(=O)CC(=O)OCCOC(=O)CC(C)=O` [Acetoacetylated Ethylene Glycol], the “denaturation temperature (Td) of treated hair compared to hair treated with water alone” value in assay [1] is “significant increase”. The “2nd derivative FTIR spectra of treated hair compared to untreated samples” value in assay [2] was “a number of new bonds”.

For the origin of these results see patent US20160220466A1, “HAIR TREATMENT COMPOSITION” (Lonza Ltd., priority 2015, published 2016).
